Experimental data: patent US12195419B2, “Glutamine antagonists and uses thereof” (The Johns Hopkins University, priority 2017, dated 2025)
Where two headings read alike, the source gives them in different places. Values belong to the molecule of their own block, whether it stands above or below them.

Columns and labels:
[1] = Dog pharmacokinetic study of compound #2 (IV infusion or SC); format: in vivo; details: intact #2 in plasma, 0.2 mg/kg DON equivalent, male beagle dog; for AUC(0-t): read-out: Intact compound AUC0-t
Protocol: The dog pharmacokinetic study was conducted in accordance with the guidelines recommended in Guide for the Care and Use of Laboratory Animals and was approved by the Absorption Systems (San Diego, CA) Institutional Animal Care and Use Committee. Compound #2 was administered to male beagle dogs (n=1/group) as a bolus subcutaneous dose or infused over 1 h at a dose of 0.2 mg/kg DON equivalent. Blood samples were collected from the jugular vein (˜1 mL) via direct venipuncture at 0 min, 5 min (IV only), 15 min, 1 h, 2 h, 4 h, 8 h, and 24 h, post dose, placed into sodium heparin tubes, and maintained on wet ice until processing. Blood samples were centrifuged at a temperature of 4° C., at 3000× g, for 5 minutes. Plasma was collected in tubes and flash frozen. Samples were stored in a freezer set to maintain −60° C. to −80° C. until bioanalysis as described previously (see, Rais et al., 2016; Nedelcovych et al., 2017).

P493B lymphoma cells [2] = assay: Human tumor cell to plasma partitioning assay, single time-point (compounds 1, 7, 12, 16 and DON); format: cell-based; details: 20 μM; for DON release in plasma: human plasma containing P493B cells, 1 h incubation
Protocol: Compounds 1, 7, 12 and 16 were evaluated for their ability to be taken up in tumor cells and cleaved to give DON. The experimental conditions are described below.
(§1) Tumor cell to plasma partitioning assay was conducted in P493B lymphoma cells (obtained from Dr. Chi Dang, Abramson Cancer Center, University of Pennsylvania, Philadelphia, PA; (REF, Nature 458, 762-765, 2009). In brief, cells were grown in 150 cm^2 cell T-flasks (Falcon™, USA) with RPMI 1640, 1× L-glutamine medium (Corning™ Cellgro™, USA) supplemented with 10% (v/v) FBS (Gibco™, USA), and 1% streptomycin and gentamycin (Gibco™, USA). All cells were incubated at 37° C., in a humidified atmosphere with 5% CO2. The cell confluency was monitored visually using an Axiovert 25 optical microscope equipped with an 3CCD digital camera. Upon confluency, cell suspension was collected and centrifuged at 1000 rpm for 5 min at 25° C. to collect the cell pellet. The supernatant media was decanted, the cell pellet was re-suspended in 20 mL of DPBS (Gibco™, USA), and maintained at 37° C. in order to remove the media traces.
The cell count was determined using an automated cell counter (Bio-Rad, USA) following a 1:1 dilution of an aliquot with 0.4% trypan blue solution (Bio-Rad, USA). The cell suspension in DPBS was centrifuged at 1000 rpm for 5 min at 25° C. to collect the cell pellet. The supernatant DPBS was decanted and the cell pellets were resuspended in human plasma (Innovative Research, USA) to obtain a cell density of 10 million cells/mL of plasma. For analysis of cell partitioning cell-plasma suspension, 1 ml, was pre-incubated at 37° C. for 5 min, following which, compounds were spiked for a final concentration of 20 μM and re-incubated at 37° C. for 1 h. Following incubation, the cell suspension was centrifuged at 10000 rpm for 10 min at 4° C. Supernatant plasma obtained after centrifugation was collected and stored at −80° C. for intact compound and DON analysis. The cell pellet was washed once with ice cold DPBS, followed by centrifugation and stored at −80° C. for intact prodrug and/or DON analysis by LC-MS/MS.
For quantification of DON and intact compound, cell pellets were weighed and suspended in 50 μL of water. To the cell suspension, ice cold methanol with internal standards (losartan: 0.5 μM and glutamate D5: 10 μM) were added in a 5:1 ratio of solvent to cell suspension. The cell samples were vortexed, mixed for 30 sec and centrifuged at 10,000 rpm for 10 min at 4° C. For intact compound bioanalysis, 50 μL of the supernatant obtained after centrifugation was diluted with 50 μL water and transferred to a 250 μL polypropylene vial sealed with a Teflon cap. DON bioanalysis was performed following dabsyl chloride derivatization method with minor modifications (see, Rais et al., 2016; Nedelcovych et al., 2017). Briefly, 200 μL of the supernatant was collected in a separate tube and dried at 45° C. under vacuum for 1 h. To each tube, 50 μL of 0.2 M sodium bicarbonate buffer (pH 9.0) and 100 μL dabsyl chloride stock was added. […] The standard curve for DON quantification in the cell pellet was prepared using naïve P493B cells diluted with water to the equivalent ratio as that of sample.
Briefly, DON was analyzed on a Dionex ultra high-performance system consisting of an analytical pump, and an autosampler coupled with Q Exactive Focus orbitrap mass spectrometer (Thermo Fisher Scientific Inc., Waltham MA). […]

P493B tumor cells = assay: Time dependent tumor cell to plasma partitioning of compound 7; format: cell-based, human
Protocol: as §1
The cell count was determined using an automated cell counter (Bio-Rad, USA) following a 1:1 dilution of an aliquot with 0.4% trypan blue solution (Bio-Rad, USA). The cell suspension in DPBS was centrifuged at 1000 rpm for 5 min at 25° C. to collect the cell pellet. The supernatant DPBS was decanted and the cell pellets were resuspended in human plasma (Innovative Research, USA) to obtain a cell density of 10 million cells/mL of plasma. […]

[3] = Compound 7 dog pharmacokinetic study (SC); format: in vivo; details: beagle dog plasma, actual dose 2.6 mg/kg (DON eq. 0.8 mg/kg)
Source text: Compound 7 was administrated to a beagle dog subcutaneously. FIG. 4C is a line graph showing its plasma pharmacokinetics in the dog.

P493B lymphoma cells [4] = assay: Cell proliferation assay (CellTiter 96 AQueous); format: cell-based, human; details: for EC50: Homo sapiens, 72 h incubation, read-out: EC50 (cell viability)
Protocol: The cell proliferation assay was performed using the CellTiter 96® AQueous one solution cell proliferation reagent following the manufacturers' instruction (Promega, USA). Briefly, P493B lymphoma cells were plated in 96 well plates at a density of 20,000 cells/well in a final volume of 100 μL growth media. Test compound stocks were made in DMSO and were added to cells in a 1:10 serial dilution with a final concentration of 0.2% DMSO. Cells were allowed to proliferate for 72 h in the presence of test compounds. Thereafter, 20 μL of CellTiter 96™ AQeous (Promega #3580) was added per well and incubated for 2 h. Absorbance was measured at 490 nm.
DON and compound 7 were incubated with P493B lymphoma cells for 72 h, and cell viability was measured.

Cmax ([1]; IV infusion over 1 h): 6570 nM | Tmax ([1]; IV infusion over 1 h): 0.08 h | AUC(0-t) ([1]; IV infusion over 1 h): 7.45 µM·h | Cmax ([1]; SC bolus): 470 nM | Tmax ([1]; SC bolus): 4 h | AUC(0-t) ([1]; SC bolus): 2.6 µM·h
Compound: CC(=O)NCCCC[C@H](NC(=O)OCC1c2ccccc2-c2ccccc21)C(=O)N[C@@H](CCC(=O)C=[N+]=[N-])C(=O)OC(C)C [Compound 2, Isopropyl 2-(2-((((9H-fluoren-9-yl)methoxy)carbonyl)amino)-6-acet-amidohexanamido)-6-diazo-5-oxohexanoate]

Compound: CC(=O)NCCCC[C@H](NC(=O)OC(C)(C)C)C(=O)N[C@@H](CCC(=O)C=[N+]=[N-])C(=O)OC(C)C [Compound 1, Isopropyl 2-(6-acetamido-2-((tert-butoxycarbonyl)amino)-hexanamido)-6-diazo-5-oxohexanoate]
DON release in plasma (P493B lymphoma cells [2]): minimal DON release

DON release in plasma (P493B lymphoma cells [2]): minimal DON release | intact compound observed in tumor cells (P493B tumor cells): < 1% | AUC ([3]; N = 1, read-out: AUC Cpd 7): 2.1 µM·h | Cmax ([3]; N = 1, read-out: Cmax Cpd 7): 640 nM | EC50 (P493B lymphoma cells [4]): 5 ± 0.12 µM
Compound: CC(=O)NCCCC[C@H](NC(=O)C12CC3CC(CC(C3)C1)C2)C(=O)N[C@@H](CCC(=O)C=[N+]=[N-])C(=O)OC(C)C [Compound 7]
improvement of tumor cell killing vs DON (P493B lymphoma cells [4]; 72 h, EC50 compared to DON): two-fold

DON release in plasma (P493B lymphoma cells [2]): minimal DON release
Compound: CC(=O)NCCCC[C@H](NC(=O)[C@H](Cc1c[nH]c2ccccc12)NC(C)=O)C(=O)N[C@@H](CCC(=O)C=[N+]=[N-])C(=O)OC(C)C (stereo in doubt) [Compound 12, Isopropyl 2-(6-acetamido-2-(2-acetamido-3-(1H-indol-3-yl)propan-amido)hexanamido)-6-diazo-5-oxohexanoate]

DON release in plasma (P493B lymphoma cells [2]): minimal DON release | DON release in tumor cells (tumor cell DON concentrations) (P493B lymphoma cells [2]; human plasma with 10 million P493B cells, 37° C., 1 h, compared to DON): minimal release
Compound: CC(=O)NCCCC[C@H](NC(=O)[C@@H]1Cc2ccccc2CN1C(C)=O)C(=O)N[C@@H](CCC(=O)C=[N+]=[N-])C(=O)OC(C)C (stereo in doubt) [Compound 16, Isopropyl 2-(6-acetamido-2-(2-acetyl-1,2,3,4-tetrahydroisoquinoline-3-carboxamido)hexanamido)-6-diazo-5-oxohexanoate]

Compound: [N-]=[N+]=CC(=O)CC[C@H](N)C(=O)O [DON, 6-diazo-5-oxo-L-norleucine, reference compound]
EC50 (P493B lymphoma cells [4]): 10 ± 0.11 µM
